Measurements published in PubChem BioAssay (NCI).
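Where inhibition never reached the appropriate level, the endpoint shown equals the highest concentration tested. Otherwise, values were interpolated linearly from a five-concentration, 48-hour dose response in 96-well plates. TGI: total growth inhibition.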

Columns and labels:
Assay in all cases: growth of human tumour cells (NCI), 48 h
786-0 renal = tested on: 786-0 renal
A498 renal = tested on: A498 renal
A549 NSCLC = tested on: A549 NSCLC
ACHN renal = tested on: ACHN renal
CAKI-1 renal = tested on: CAKI-1 renal
CCRF-CEM leukemia = tested on: CCRF-CEM leukemia
COLO 205 colon = tested on: COLO 205 colon
DU-145 prostate = tested on: DU-145 prostate
EKVX NSCLC = tested on: EKVX NSCLC
HCT-116 colon = tested on: HCT-116 colon
HL-60(TB) leukemia = tested on: HL-60(TB) leukemia
HOP-62 NSCLC = tested on: HOP-62 NSCLC
HOP-92 NSCLC = tested on: HOP-92 NSCLC
HS 578T breast = tested on: HS 578T breast
HT29 colon = tested on: HT29 colon
IGROV1 ovarian = tested on: IGROV1 ovarian
K-562 leukemia = tested on: K-562 leukemia
KM12 colon = tested on: KM12 colon
LOX IMVI melanoma = tested on: LOX IMVI melanoma
M14 melanoma = tested on: M14 melanoma
MALME-3M melanoma = tested on: MALME-3M melanoma
MCF7 breast = tested on: MCF7 breast
MDA-MB-231 breast = tested on: MDA-MB-231 breast
MDA-MB-435 = tested on: MDA-MB-435
MDA-N = tested on: MDA-N
MOLT-4 leukemia = tested on: MOLT-4 leukemia
NCI-H226 lung = tested on: NCI-H226 lung
NCI-H522 lung = tested on: NCI-H522 lung
OVCAR-3 ovarian = tested on: OVCAR-3 ovarian
OVCAR-4 ovarian = tested on: OVCAR-4 ovarian
OVCAR-5 ovarian = tested on: OVCAR-5 ovarian
OVCAR-8 ovarian = tested on: OVCAR-8 ovarian
PC-3 prostate = tested on: PC-3 prostate
RPMI-8226 leukemia = tested on: RPMI-8226 leukemia
RXF 393 renal = tested on: RXF 393 renal
SF-268 CNS = tested on: SF-268 CNS
SF-295 CNS = tested on: SF-295 CNS
SF-539 CNS = tested on: SF-539 CNS
SK-MEL-2 melanoma = tested on: SK-MEL-2 melanoma
SK-MEL-28 melanoma = tested on: SK-MEL-28 melanoma
SK-MEL-5 melanoma = tested on: SK-MEL-5 melanoma
SK-OV-3 ovarian = tested on: SK-OV-3 ovarian
SN12C renal = tested on: SN12C renal
SNB-19 CNS = tested on: SNB-19 CNS
SNB-75 CNS = tested on: SNB-75 CNS
SR leukemia = tested on: SR leukemia
SW-620 colon = tested on: SW-620 colon
T-47D breast = tested on: T-47D breast
TK-10 renal = tested on: TK-10 renal
U251 CNS = tested on: U251 CNS
UACC-257 melanoma = tested on: UACC-257 melanoma
UO-31 renal = tested on: UO-31 renal

Measured: TGI

O=C1C(=c2cc3c(c4ccccc24)=NC24CCCCC2C(c2ccccc2)C=C(c2ccccc2)N34)C(=O)c2ccccc21 (configuration not stated)
79.7 µM: SR leukemia
64.7 µM: MOLT-4 leukemia
53.8 µM: RPMI-8226 leukemia
70.8 µM: MDA-MB-435
68.3 µM: OVCAR-4 ovarian
> 100 µM: 786-0 renal | A498 renal | A549 NSCLC | ACHN renal | CAKI-1 renal | CCRF-CEM leukemia | COLO 205 colon | DU-145 prostate | EKVX NSCLC | HCT-116 colon | HL-60(TB) leukemia | HOP-62 NSCLC | HOP-92 NSCLC | HS 578T breast | HT29 colon | IGROV1 ovarian | K-562 leukemia | KM12 colon | LOX IMVI melanoma | M14 melanoma | MALME-3M melanoma | MCF7 breast | MDA-MB-231 breast | MDA-N | NCI-H226 lung | OVCAR-3 ovarian | OVCAR-5 ovarian | OVCAR-8 ovarian | PC-3 prostate | SF-268 CNS | SF-295 CNS | SF-539 CNS | SK-MEL-2 melanoma | SK-MEL-28 melanoma | SK-MEL-5 melanoma | SK-OV-3 ovarian | SN12C renal | SNB-19 CNS | SNB-75 CNS | SW-620 colon | T-47D breast | TK-10 renal | U251 CNS | UACC-257 melanoma | UO-31 renal
49 µM: RXF 393 renal
47.5 µM: NCI-H522 lung
